Measured values as given in PMC3904261 (British Journal of Pharmacology, 2013).
Bridge positions count the residues as written; N and C are the ends. Ends that are not written are not given here.

Key:
CGRP receptor [1] = molecular target: T1, CGRP receptor (Homo sapiens, UniProt O60894+Q16602); assay: Displacement of 125I-CGRP binding to SK-N-MC cell membranes; design: relative expression levels of the receptors (endogenous vs. overexpressed); endogenous in cells; host or cells: SK-N-MC cells (ECACC clone; ATCC clone for [Cys5]-CGRP); conditions: Binding (SK-N-MC) pKi CGRP analogue, 125I-CGRP displacement, SK-N-MC cell membranes; means ± SEM, n = 3–6; [Cys5] on a different batch of SK-N-MC cells
T1 sequence (Q16602 23-461): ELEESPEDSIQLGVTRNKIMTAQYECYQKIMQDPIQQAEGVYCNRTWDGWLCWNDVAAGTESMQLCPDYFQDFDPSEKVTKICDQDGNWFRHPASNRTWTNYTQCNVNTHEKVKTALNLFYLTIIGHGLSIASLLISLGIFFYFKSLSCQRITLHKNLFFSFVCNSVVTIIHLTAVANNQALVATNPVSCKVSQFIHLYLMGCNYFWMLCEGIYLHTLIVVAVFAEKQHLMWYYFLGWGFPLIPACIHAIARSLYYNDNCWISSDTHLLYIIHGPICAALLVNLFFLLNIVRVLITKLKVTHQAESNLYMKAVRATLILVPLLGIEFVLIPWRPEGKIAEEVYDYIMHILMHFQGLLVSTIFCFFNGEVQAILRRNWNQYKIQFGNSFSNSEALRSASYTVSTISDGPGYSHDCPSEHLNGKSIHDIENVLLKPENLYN
T1 sequence (O60894 27-148): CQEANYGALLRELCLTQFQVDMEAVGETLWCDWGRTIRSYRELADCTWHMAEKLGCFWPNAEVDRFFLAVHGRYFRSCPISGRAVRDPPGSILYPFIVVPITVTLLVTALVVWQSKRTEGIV
Method: (§1) GraphPad Prism 5.00 or 6.00 (GraphPad Software Inc., San Diego, CA, USA) was used for data fitting. Concentration–response curves were fitted to a sigmoidal function with Hill slope constrained to unity to obtain pEC50 and maximum responses (Emax) values. Displacement curves were analysed to obtain pIC50 values. Schild plots were fitted by linear regression to obtain slope and intercepts. pEC50 and pIC50 values were compared with that of human αCGRP using Dunnett's test with either a normal or repeated measures one-way ANOVA, as appropriate.

AMY1(a) receptor = molecular target: T2, AMY1(a) receptor (Homo sapiens, UniProt O60894+P30988); assay: cAMP production in Cos 7 cells via the AMY1(a) receptor; assay type: cell-based; conditions: AlphaScreen, means ± SEM, n = 3–6
T2 construct: HA; expressed in transfected cells; host or cells: Cos 7
T2 sequence (P30988 25-474): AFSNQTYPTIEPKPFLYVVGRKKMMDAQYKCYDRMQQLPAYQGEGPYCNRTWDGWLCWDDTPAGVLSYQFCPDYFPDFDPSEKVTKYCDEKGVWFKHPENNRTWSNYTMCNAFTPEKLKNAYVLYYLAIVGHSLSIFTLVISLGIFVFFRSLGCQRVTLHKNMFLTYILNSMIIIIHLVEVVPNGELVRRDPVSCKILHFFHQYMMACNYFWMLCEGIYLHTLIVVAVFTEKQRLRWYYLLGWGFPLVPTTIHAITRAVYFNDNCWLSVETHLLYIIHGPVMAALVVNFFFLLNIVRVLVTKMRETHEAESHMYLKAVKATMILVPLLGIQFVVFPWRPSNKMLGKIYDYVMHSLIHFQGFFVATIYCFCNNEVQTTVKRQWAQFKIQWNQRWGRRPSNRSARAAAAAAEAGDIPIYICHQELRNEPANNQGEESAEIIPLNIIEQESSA
T2 sequence (O60894 27-148): as the sequence (O60894 27-148) above
Method: SK-N-MC cells were grown in DMEM/F12 medium supplemented with 10% fetal calf serum as described previously (Poyner et al., [1998]). […] Production of cAMP in SK-N-MC cells for all analogues except [[…]]-hαCGRP was by a radioreceptor assay, as described previously (Poyner et al., [1998]). […] For [[…]]-hαCGRP, a different clone of SK-N-MC cells was used and cAMP production was measured via AlphaScreen (Perkin Elmer, Wellesley, MA, USA), as described previously ([…] et al., [2010]). This assay was also used to investigate the action of all derivatives at the AMY1(a) receptor and other experiments using Cos 7 cells. […] GraphPad Prism 5.00 or 6.00 (GraphPad Software Inc., San Diego, CA, USA) was used for data fitting. Concentration-response curves were fitted to a sigmoidal function with Hill slope constrained to unity to obtain pEC50 and maximum responses (Emax) values. Displacement curves were analysed to obtain pIC50 values. Schild plots were fitted by linear regression to obtain slope and intercepts. pEC50 and pIC50 values were compared with that of human αCGRP using Dunnett's test with either a normal or repeated measures one-way ANOVA, as appropriate.

CGRP receptor [2] = molecular target: T1, CGRP receptor; assay: β-arrestin 2 translocation in CHO-K1 cells (PathHunter eXpress); assay type: cell-based; design: host or cells: CHO-K1 (PathHunter eXpress β-arrestin kit)
Method: as §1

CGRP receptor [3] = molecular target: T1, CGRP receptor; assay: cAMP production in SK-N-MC cells; assay type: cell-based; design: relative expression levels of the receptors (endogenous vs. overexpressed); endogenous in cells; host or cells: SK-N-MC cells (ECACC clone; ATCC clone for [Cys5]-CGRP); conditions: radioreceptor assay, approx. 10 min, means ± SEM, n = 3–6
Method: Production of cAMP in SK-N-MC cells for all analogues except [[…]]-hαCGRP was by a radioreceptor assay, as described previously (Poyner et al., [1998]). […] For [[…]]-hαCGRP, a different clone of SK-N-MC cells was used and cAMP production was measured via AlphaScreen (Perkin Elmer, Wellesley, MA, USA), as described previously ([…] et al., [2010]). This assay was also used to investigate the action of all derivatives at the AMY1(a) receptor and other experiments using Cos 7 cells. […] GraphPad Prism 5.00 or 6.00 (GraphPad Software Inc., San Diego, CA, USA) was used for data fitting. Concentration-response curves were fitted to a sigmoidal function with Hill slope constrained to unity to obtain pEC50 and maximum responses (Emax) values. Displacement curves were analysed to obtain pIC50 values. Schild plots were fitted by linear regression to obtain slope and intercepts. pEC50 and pIC50 values were compared with that of human αCGRP using Dunnett's test with either a normal or repeated measures one-way ANOVA, as appropriate.

[4] = molecular target: T3, CGRP receptor (calcitonin receptor-like receptor in complex with receptor activity-modifying protein 1) (human (endogenous in SK-N-MC), UniProt Q16602 23-461; O60894 27-148); assay: radioligand binding; displacement of ^125I-CGRP from SK-N-MC cell membranes by unlabelled peptides, microcentrifugation-based binding assay; [Cys^5]-CGRP and its control on another batch of SK-N-MC cells; conditions: one partner purified
T3 sequence (Q16602 23-461, chain 1 of 2): as the sequence (Q16602 23-461) above
T3 sequence (O60894 27-148, chain 2 of 2): as the sequence (O60894 27-148) above

[5] = molecular target: T3, CGRP receptor (calcitonin receptor-like …); assay: cell-based or functional assay
[6] = molecular target: AMY_(1(a)) receptor (human HA-tagged CT (a) receptor with human myc-tagged RAMP1) (human) (UniProt O60894)
Sequence of AMY_(1(a)) receptor (human HA-tagged CT (a) receptor with human myc-tagged RAMP1) (human) (O60894 whole entry, looked up): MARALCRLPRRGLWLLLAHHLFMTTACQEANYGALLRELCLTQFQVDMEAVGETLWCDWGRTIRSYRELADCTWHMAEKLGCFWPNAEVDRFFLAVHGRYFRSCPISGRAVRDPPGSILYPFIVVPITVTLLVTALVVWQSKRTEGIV

[7] = 2 h stimulation, means ± SEM, n = 3

CC(C)C[C@H](NC(=O)CNC(=O)[C@H](C)NC(=O)[C@H](CC(C)C)NC(=O)[C@H](CCCNC(=N)N)NC(=O)[C@H](Cc1c[nH]cn1)NC(=O)[C@@H](NC(=O)[C@@H](NC(=O)[C@@H]1CSSC[C@H](NC(=O)[C@H](C)N)C(=O)N[C@@H](CC(=O)O)C(=O)N[C@@H]([C@@H](C)O)C(=O)N[C@@H](C)C(=O)N[C@@H](CO)C(=O)N1)C(C)C)[C@@H](C)O)C(=O)N[C@@H](CC(C)C)C(=O)N[C@@H](CO)C(=O)N[C@@H](CCCNC(=N)N)C(=O)N[C@@H](CO)C(=O)NCC(=O)NCC(=O)N[C@H](C(=O)N[C@H](C(=O)N[C@@H](CCCCN)C(=O)N[C@@H](CC(N)=O)C(=O)N[C@@H](CC(N)=O)C(=O)N[C@@H](Cc1ccccc1)C(=O)N[C@H](C(=O)N1CCC[C@H]1C(=O)N[C@H](C(=O)N[C@@H](CC(N)=O)C(=O)N[C@H](C(=O)NCC(=O)N[C@@H](CO)C(=O)N[C@@H](CCCCN)C(=O)N[C@@H](C)C(=O)N[C@@H](Cc1ccccc1)C(N)=O)C(C)C)[C@@H](C)O)C(C)C)C(C)C)C(C)C [[Ser^6]]
Ki (CGRP receptor [1]): 0.759 nM | EC50 (AMY1(a) receptor; AMY1(a) receptor-stimulated cAMP pEC50 CGRP analogue): 0.562 nM | AMY1(a) receptor-stimulated cAMP Emax (% CGRP) CGRP analogue (AMY1(a) receptor): 76 ± 19 % CGRP | β-Arrestin (CHO-K1) Emax (% CGRP) CGRP analogue (CGRP receptor [2]; [7]): 57.3 ± 4.8 % CGRP | Emax (CGRP receptor [2]; CHO-K1, CHO-K1 cells, compared with CGRP, read-out: reduction of Emax, β-arrestin 2 translocation): 40% | EC50 (CGRP receptor [2]; β-Arrestin (CHO-K1) pEC50 CGRP analogue, 2 h stimulation, means ± SEM, n = 3): 8.51 nM | EC50 (CGRP receptor [3]; cAMP (SK-N-MC) pEC50 CGRP analogue): 53.7 nM | cAMP (SK-N-MC) Emax (% CGRP) CGRP analogue (CGRP receptor [3]): 100 ± 10 % CGRP

CC(C)C[C@H](NC(=O)CNC(=O)[C@H](C)NC(=O)[C@H](CC(C)C)NC(=O)[C@H](CCCNC(=N)N)NC(=O)[C@H](Cc1c[nH]cn1)NC(=O)[C@@H](NC(=O)[C@@H](NC(=O)[C@@H]1CSSC[C@H](NC(=O)[C@H](C)N)C(=O)N[C@@H](CC(=O)O)C(=O)N[C@@H]([C@@H](C)O)C(=O)N[C@@H](C)C(=O)N[C@@H](CC(=O)O)C(=O)N1)C(C)C)[C@@H](C)O)C(=O)N[C@@H](CC(C)C)C(=O)N[C@@H](CO)C(=O)N[C@@H](CCCNC(=N)N)C(=O)N[C@@H](CO)C(=O)NCC(=O)NCC(=O)N[C@H](C(=O)N[C@H](C(=O)N[C@@H](CCCCN)C(=O)N[C@@H](CC(N)=O)C(=O)N[C@@H](CC(N)=O)C(=O)N[C@@H](Cc1ccccc1)C(=O)N[C@H](C(=O)N1CCC[C@H]1C(=O)N[C@H](C(=O)N[C@@H](CC(N)=O)C(=O)N[C@H](C(=O)NCC(=O)N[C@@H](CO)C(=O)N[C@@H](CCCCN)C(=O)N[C@@H](C)C(=O)N[C@@H](Cc1ccccc1)C(N)=O)C(C)C)[C@@H](C)O)C(C)C)C(C)C)C(C)C [[Asp^6]]
Ki (CGRP receptor [1]): 31.6 nM | AMY1(a) receptor-stimulated cAMP pEC50 CGRP analogue (AMY1(a) receptor): Undetectable | β-Arrestin (CHO-K1) pEC50 CGRP analogue (CGRP receptor [2]; [7]): Undetectable | cAMP (SK-N-MC) pEC50 CGRP analogue (CGRP receptor [3]): Undetectable

CC(C)C[C@H](NC(=O)CNC(=O)[C@H](C)NC(=O)[C@H](CC(C)C)NC(=O)[C@H](CCCNC(=N)N)NC(=O)[C@H](Cc1c[nH]cn1)NC(=O)[C@@H](NC(=O)[C@@H](NC(=O)[C@@H]1CSSC[C@H](NC(=O)[C@H](C)N)C(=O)N[C@@H](CC(=O)O)C(=O)N[C@@H]([C@@H](C)O)C(=O)N[C@@H](C)C(=O)N[C@@H](CCCCN)C(=O)N1)C(C)C)[C@@H](C)O)C(=O)N[C@@H](CC(C)C)C(=O)N[C@@H](CO)C(=O)N[C@@H](CCCNC(=N)N)C(=O)N[C@@H](CO)C(=O)NCC(=O)NCC(=O)N[C@H](C(=O)N[C@H](C(=O)N[C@@H](CCCCN)C(=O)N[C@@H](CC(N)=O)C(=O)N[C@@H](CC(N)=O)C(=O)N[C@@H](Cc1ccccc1)C(=O)N[C@H](C(=O)N1CCC[C@H]1C(=O)N[C@H](C(=O)N[C@@H](CC(N)=O)C(=O)N[C@H](C(=O)NCC(=O)N[C@@H](CO)C(=O)N[C@@H](CCCCN)C(=O)N[C@@H](C)C(=O)N[C@@H](Cc1ccccc1)C(N)=O)C(C)C)[C@@H](C)O)C(C)C)C(C)C)C(C)C [[Lys^6]]
Ki (CGRP receptor [1]): 17.4 nM | AMY1(a) receptor-stimulated cAMP pEC50 CGRP analogue (AMY1(a) receptor): Undetectable | β-Arrestin (CHO-K1) pEC50 CGRP analogue (CGRP receptor [2]; [7]): Undetectable | cAMP (SK-N-MC) pEC50 CGRP analogue (CGRP receptor [3]): Undetectable

ACDTASCVTHRLAGLLSRSGGVVKNNFVPTNVGSKAF-NH2 (disulfide 2-7) [[Ser^6]-CGRP]
pKi [4]: 9.12 | Emax (% CGRP), cAMP production in SK-N-MC cells [5]: 100 % CGRP | Emax (% CGRP), β-arrestin 2 translocation in CHO-K1 cells expressing the human CGRP receptor [5]: 57.3 % CGRP | pEC50, cAMP production in SK-N-MC cells [5]: 7.27 | pEC50, β-arrestin 2 translocation in CHO-K1 cells expressing the human CGRP receptor [5]: 8.07 | Emax (% CGRP), cAMP production in Cos 7 cells with the AMY (1(a)) receptor [6]: 76 % CGRP | pEC50, cAMP production in Cos 7 cells with the AMY (1(a)) receptor [6]: 9.25

B1: [Cys^3]-CGRP (peptide)
chain: ACCTATCVTHRLAGLLSRSGGVVKNNFVPTNVGSKAF-NH2
modifications: disulfide 2-7; N-terminus assumed
SMILES: CC(C)C[C@H](NC(=O)CNC(=O)[C@H](C)NC(=O)[C@H](CC(C)C)NC(=O)[C@H](CCCNC(=N)N)NC(=O)[C@H](Cc1c[nH]cn1)NC(=O)[C@@H](NC(=O)[C@@H](NC(=O)[C@@H]1CSSC[C@H](NC(=O)[C@H](C)N)C(=O)N[C@@H](CS)C(=O)N[C@@H]([C@@H](C)O)C(=O)N[C@@H](C)C(=O)N[C@@H]([C@@H](C)O)C(=O)N1)C(C)C)[C@@H](C)O)C(=O)N[C@@H](CC(C)C)C(=O)N[C@@H](CO)C(=O)N[C@@H](CCCNC(=N)N)C(=O)N[C@@H](CO)C(=O)NCC(=O)NCC(=O)N[C@H](C(=O)N[C@H](C(=O)N[C@@H](CCCCN)C(=O)N[C@@H](CC(N)=O)C(=O)N[C@@H](CC(N)=O)C(=O)N[C@@H](Cc1ccccc1)C(=O)N[C@H](C(=O)N1CCC[C@H]1C(=O)N[C@H](C(=O)N[C@@H](CC(N)=O)C(=O)N[C@H](C(=O)NCC(=O)N[C@@H](CO)C(=O)N[C@@H](CCCCN)C(=O)N[C@@H](C)C(=O)N[C@@H](Cc1ccccc1)C(N)=O)C(C)C)[C@@H](C)O)C(C)C)C(C)C)C(C)C
pKi [4]: 9.54 | Emax (% CGRP), cAMP production in SK-N-MC cells [5]: 116 % CGRP | Emax (% CGRP), β-arrestin 2 translocation in CHO-K1 cells expressing the human CGRP receptor [5]: 95 % CGRP | pEC50, cAMP production in SK-N-MC cells [5]: 8.27 | pEC50, β-arrestin 2 translocation in CHO-K1 cells expressing the human CGRP receptor [5]: 8.43 | Emax (% CGRP), cAMP production in Cos 7 cells with the AMY (1(a)) receptor [6]: 108 % CGRP | pEC50, cAMP production in Cos 7 cells with the AMY (1(a)) receptor [6]: 8.9
